According to PubChem BioAssay (NCI):
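Briefly, cells in 96-well plates were exposed to five compound concentrations for 48 h, and endpoints were estimated by linear interpolation. Abbreviation: GI50, concentration required for 50% inhibition of growth. TGI: concentration producing complete growth inhibition.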

Key:
Test in all cases: DTP human tumour cell line panel, 48 h
[1] = tested on: OVCAR-3 ovarian
[2] = tested on: SW-620 colon
[3] = tested on: T-47D breast
[4] = tested on: NCI-H226 lung
[5] = tested on: CAKI-1 renal
[6] = tested on: NCI-H460 lung
[7] = tested on: 786-0 renal
[8] = tested on: SNB-75 CNS
[9] = tested on: COLO 205 colon
[10] = tested on: EKVX NSCLC

NCCOCCOCCNc1nc(Cc2ccccc2)nc(NCCCN2CCCC2=O)n1
GI50 [1]: > 100 µM | TGI [1]: > 100 µM | GI50 [2]: > 100 µM | TGI [2]: > 100 µM | GI50 [3]: > 100 µM | TGI [3]: > 100 µM | GI50 [4]: > 100 µM | TGI [4]: > 100 µM | GI50 [5]: > 100 µM | TGI [5]: > 100 µM | GI50 [6]: > 100 µM | TGI [6]: > 100 µM | GI50 [7]: > 100 µM | TGI [7]: > 100 µM | GI50 [8]: > 100 µM | TGI [8]: > 100 µM | GI50 [9]: > 100 µM | TGI [9]: > 100 µM

CC(C)c1cc(-c2n[nH]c(=O)n2-c2ccc3c(ccn3C)c2)c(O)cc1O
GI50 [1]: < 0.0237 µM | TGI [1]: 19.4 µM | GI50 [2]: < 0.013 µM | TGI [2]: 24.5 µM | GI50 [3]: < 0.0287 µM | TGI [3]: 34.5 µM | GI50 [4]: 0.286 µM | TGI [4]: 60.1 µM | GI50 [5]: 0.0479 µM | TGI [5]: > 71.5 µM | GI50 [6]: < 0.0157 µM | TGI [6]: 13.9 µM | GI50 [7]: 0.0686 µM | TGI [7]: 45.4 µM | GI50 [8]: 1.58 µM | TGI [8]: 97.7 µM | GI50 [9]: 0.0259 µM | TGI [9]: 0.981 µM

CCc1nccc2c1nc(-c1nonc1N)n2CC
GI50 [1]: > 25 µM | TGI [1]: > 25 µM | GI50 [10]: > 25 µM | TGI [10]: > 25 µM | GI50 [2]: > 25 µM | TGI [2]: > 25 µM | GI50 [3]: > 25 µM | TGI [3]: > 25 µM | GI50 [4]: > 18 µM | TGI [4]: > 25 µM | GI50 [5]: 12.2 µM | TGI [5]: > 25 µM | GI50 [6]: > 25 µM | TGI [6]: > 25 µM | GI50 [7]: > 25 µM | TGI [7]: > 25 µM | GI50 [8]: > 23.4 µM | TGI [8]: > 25 µM | GI50 [9]: > 25 µM | TGI [9]: > 25 µM

CCCCCCCCCCC(C(=O)O)C1(C(=O)O)CCC(=O)O1 (configuration not stated)
TGI [1]: > 100 µM | TGI [10]: > 100 µM | TGI [2]: > 100 µM | TGI [3]: > 100 µM | TGI [4]: > 100 µM | TGI [5]: > 100 µM | TGI [6]: > 100 µM | TGI [7]: > 100 µM | TGI [8]: > 100 µM | TGI [9]: > 100 µM

CC1(C)CC(=O)c2c(C(F)(F)F)nn(-c3ccc(C(N)=O)c(NC4CCC(OC(=O)CN)CC4)c3)c2C1 (configuration not stated)
GI50 [1]: 0.159 µM | TGI [1]: > 100 µM | GI50 [2]: 0.038 µM | TGI [2]: > 100 µM | GI50 [3]: 0.0461 µM | TGI [3]: > 100 µM | GI50 [4]: 0.103 µM | TGI [4]: > 56.4 µM | GI50 [5]: 2.9 µM | TGI [5]: > 100 µM | GI50 [6]: 0.0502 µM | TGI [6]: > 100 µM | GI50 [7]: 16.2 µM | TGI [7]: > 100 µM | GI50 [8]: 0.634 µM | TGI [8]: > 100 µM | GI50 [9]: 0.0289 µM | TGI [9]: 8.03 µM

Cc1cc(N(CCCl)CCCl)ccc1C=Nc1ccc(-c2csc(Cc3ccccc3)n2)cc1
GI50 [1]: 9.17 µM | TGI [1]: 27 µM | GI50 [2]: 18.1 µM | TGI [2]: > 100 µM | GI50 [3]: 2.82 µM | TGI [3]: 49.2 µM | GI50 [4]: 0.596 µM | TGI [4]: 21.3 µM | GI50 [5]: 2.18 µM | TGI [5]: 30.5 µM | GI50 [6]: 0.475 µM | TGI [6]: 23.6 µM | GI50 [7]: 5.86 µM | TGI [7]: 49.1 µM | GI50 [8]: 3.03 µM | TGI [8]: 33.5 µM | GI50 [9]: 13.1 µM | TGI [9]: 34.1 µM

CCCC(=O)OC1C(C(O)CO)OC2OC(C)(C)OC21 (configuration not stated)
TGI [1]: > 100 µM | TGI [10]: > 100 µM | TGI [2]: > 100 µM | TGI [3]: > 100 µM | TGI [4]: > 100 µM | TGI [5]: > 100 µM | TGI [6]: > 100 µM | TGI [7]: > 100 µM | TGI [8]: > 100 µM | TGI [9]: > 100 µM
